Consider 31 molecules from ChEMBL document CHEMBL4334508, “Oleanolic Acid Derivatives as Potential Inhibitors of HIV-1 Protease” (J Nat Prod, 2019).

Molecules are shown by their SMILES.

The assay deals with Protease (Human immunodeficiency virus 1, UniProt Q9YQ12). Nature of the assay: Inhibition of HIV1 protease expressed in Escherichia coli using Abz-Ala-Arg-Val-Nle-Tyr(NO2)-Glu-Ala-Nle-NH2 peptide as substrate by FRET assay.
Chain of Protease (Q9YQ12 whole entry): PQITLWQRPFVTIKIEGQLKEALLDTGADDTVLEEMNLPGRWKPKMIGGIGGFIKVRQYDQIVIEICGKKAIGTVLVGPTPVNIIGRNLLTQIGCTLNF
Consider `CC1(C)CC[C@]2(C(=O)NCCCC(=O)NCC(=O)O)CC[C@]3(C)C(=CC[C@@H]4[C@@]5(C)CC[C@H](OC(=O)c6ccccc6C(=O)O)C(C)(C)[C@@H]5CC[C@]43C)[C@@H]2C1`, for which the IC50 is 2.2 µM.

Consider `CC(=O)O[C@H]1CC[C@]2(C)[C@H]3CC=C4[C@@H]5CC(C)(C)CC[C@]5(C(=O)NCCCC(=O)N[C@H](C(=O)O)C(C)C)CC[C@@]4(C)[C@]3(C)CC[C@H]2C1(C)C`, for which the IC50 is above 50 µM.

Molecule `CCCCCCCCCCCC(=O)O[C@H]1CC[C@]2(C)[C@H]3CC=C4[C@@H]5CC(C)(C)CC[C@]5(C(=O)NCCCCCCCCCCC(=O)N[C@H](C(=O)O)C(C)C)CC[C@@]4(C)[C@]3(C)CC[C@H]2C1(C)C` had an IC50 above 50 µM.

`CCCCCC(=O)O[C@H]1CC[C@]2(C)[C@H]3CC=C4[C@@H]5CC(C)(C)CC[C@]5(C(=O)NCCCCCC(=O)NCC(=O)O)CC[C@@]4(C)[C@]3(C)CC[C@H]2C1(C)C` came in with an IC50 above 50 µM.

Consider `CCCC(=O)O[C@H]1CC[C@]2(C)[C@H]3CC=C4[C@@H]5CC(C)(C)CC[C@]5(C(=O)NCCCCCC(=O)N[C@H](C(=O)O)C(C)C)CC[C@@]4(C)[C@]3(C)CC[C@H]2C1(C)C`, for which the IC50 is above 50 µM.

Turning to `CCC(=O)O[C@H]1CC[C@]2(C)[C@H]3CC=C4[C@@H]5CC(C)(C)CC[C@]5(C(=O)NCCCCCCCCCCC(=O)NCC(=O)O)CC[C@@]4(C)[C@]3(C)CC[C@H]2C1(C)C`, the 50% inhibitory concentration (IC50) was above 50 µM.

The molecule `CC1(C)CC[C@]2(C(=O)NCCCCCC(=O)NCC(=O)O)CC[C@]3(C)C(=CC[C@@H]4[C@@]5(C)CC[C@H](OC(=O)CCC(=O)O)C(C)(C)[C@@H]5CC[C@]43C)[C@@H]2C1` gave an IC50 above 50 µM.

`C[C@H](NC(=O)CCCNC(=O)[C@]12CCC(C)(C)C[C@H]1C1=CC[C@@H]3[C@@]4(C)CC[C@H](OC(=O)CCCC(=O)O)C(C)(C)[C@@H]4CC[C@@]3(C)[C@]1(C)CC2)C(=O)O`: inhibition was half-maximal at 6.6 µM (IC50).

`CC1(C)CC[C@]2(C(=O)NCCCCCC(=O)O)CC[C@]3(C)C(=CC[C@@H]4[C@@]5(C)CC[C@H](OC(=O)CCCC(=O)O)C(C)(C)[C@@H]5CC[C@]43C)[C@@H]2C1` displayed an IC50 of 1 µM.

In turn, `C[C@H](NC(=O)CCCNC(=O)[C@]12CCC(C)(C)C[C@H]1C1=CC[C@@H]3[C@@]4(C)CC[C@H](OC(=O)CCC(=O)O)C(C)(C)[C@@H]4CC[C@@]3(C)[C@]1(C)CC2)C(=O)O` showed an IC50 above 50 µM.

In the case of `C[C@H](NC(=O)CCCCCCCCCCNC(=O)[C@]12CCC(C)(C)C[C@H]1C1=CC[C@@H]3[C@@]4(C)CC[C@H](OC(=O)c5ccccc5)C(C)(C)[C@@H]4CC[C@@]3(C)[C@]1(C)CC2)C(=O)O`, the IC50 was above 50 µM.

In turn, `CCC(=O)O[C@H]1CC[C@]2(C)[C@H]3CC=C4[C@@H]5CC(C)(C)CC[C@]5(C(=O)NCCCCCC(=O)N[C@@H](C)C(=O)O)CC[C@@]4(C)[C@]3(C)CC[C@H]2C1(C)C` came in with an IC50 of 31 µM.

On to `CCC(=O)O[C@H]1CC[C@]2(C)[C@H]3CC=C4[C@@H]5CC(C)(C)CC[C@]5(C(=O)NCCCCCCCCCCC(=O)N[C@@H](C)C(=O)O)CC[C@@]4(C)[C@]3(C)CC[C@H]2C1(C)C`, for which the half-inhibitory concentration (IC50) was above 50 µM.

`CCCCCC(=O)O[C@H]1CC[C@]2(C)[C@H]3CC=C4[C@@H]5CC(C)(C)CC[C@]5(C(=O)NCCCCCCCCCCC(=O)N[C@H](C(=O)O)C(C)C)CC[C@@]4(C)[C@]3(C)CC[C@H]2C1(C)C`: the IC50 was above 50 µM.

As for `CCCCCC(=O)O[C@H]1CC[C@]2(C)[C@H]3CC=C4[C@@H]5CC(C)(C)CC[C@]5(C(=O)NCCCCCCCCCCC(=O)O)CC[C@@]4(C)[C@]3(C)CC[C@H]2C1(C)C`, the IC50 is above 50 µM.

`CCCCCC(=O)O[C@H]1CC[C@]2(C)[C@H]3CC=C4[C@@H]5CC(C)(C)CC[C@]5(C(=O)NCCCC(=O)N[C@H](C(=O)O)C(C)C)CC[C@@]4(C)[C@]3(C)CC[C@H]2C1(C)C` showed an IC50 above 50 µM.

Turning to `CCCC(=O)O[C@H]1CC[C@]2(C)[C@H]3CC=C4[C@@H]5CC(C)(C)CC[C@]5(C(=O)NCCCCCC(=O)N[C@@H](C)C(=O)O)CC[C@@]4(C)[C@]3(C)CC[C@H]2C1(C)C`, half-maximal inhibition (IC50) required 40 µM.

With `CCCCCCCCCCCC(=O)O[C@H]1CC[C@]2(C)[C@H]3CC=C4[C@@H]5CC(C)(C)CC[C@]5(C(=O)NCCCCCC(=O)N[C@@H](C)C(=O)O)CC[C@@]4(C)[C@]3(C)CC[C@H]2C1(C)C`, the IC50 was above 50 µM.

In turn, `CC(C)[C@H](NC(=O)CCCCCNC(=O)[C@]12CCC(C)(C)C[C@H]1C1=CC[C@@H]3[C@@]4(C)CC[C@H](OC(=O)c5ccccc5C(=O)O)C(C)(C)[C@@H]4CC[C@@]3(C)[C@]1(C)CC2)C(=O)O` displayed an IC50 of 0.59 µM.

The molecule `CC1(C)CC[C@]2(C(=O)NCCCCCC(=O)NCC(=O)O)CC[C@]3(C)C(=CC[C@@H]4[C@@]5(C)CC[C@H](OC(=O)CCCC(=O)O)C(C)(C)[C@@H]5CC[C@]43C)[C@@H]2C1` had a half-inhibitory concentration (IC50) above 50 µM.

As for `C[C@H](NC(=O)CCCCCNC(=O)[C@]12CCC(C)(C)C[C@H]1C1=CC[C@@H]3[C@@]4(C)CC[C@H](OC(=O)c5ccccc5)C(C)(C)[C@@H]4CC[C@@]3(C)[C@]1(C)CC2)C(=O)O`, the IC50 was above 50 µM.

With `CC(C)[C@H](NC(=O)CCCNC(=O)[C@]12CCC(C)(C)C[C@H]1C1=CC[C@@H]3[C@@]4(C)CC[C@H](OC(=O)c5ccccc5)C(C)(C)[C@@H]4CC[C@@]3(C)[C@]1(C)CC2)C(=O)O`, the IC50 is above 50 µM.

In turn, `CC(=O)O[C@H]1CC[C@]2(C)[C@H]3CC=C4[C@@H]5CC(C)(C)CC[C@]5(C(=O)NCCCCCCCCCCC(=O)O)CC[C@@]4(C)[C@]3(C)CC[C@H]2C1(C)C` displayed an IC50 above 50 µM.

`CC(=O)O[C@H]1CC[C@]2(C)[C@H]3CC=C4[C@@H]5CC(C)(C)CC[C@]5(C(=O)NCCCC(=O)O)CC[C@@]4(C)[C@]3(C)CC[C@H]2C1(C)C` returned an IC50 of 32.6 µM.

As to `CCC(=O)O[C@H]1CC[C@]2(C)[C@H]3CC=C4[C@@H]5CC(C)(C)CC[C@]5(C(=O)NCCCC(=O)N[C@H](C(=O)O)C(C)C)CC[C@@]4(C)[C@]3(C)CC[C@H]2C1(C)C`, the concentration for half-maximal inhibition (IC50) was above 50 µM.

`CCC(=O)O[C@H]1CC[C@]2(C)[C@H]3CC=C4[C@@H]5CC(C)(C)CC[C@]5(C(=O)NCCCCCC(=O)NCC(=O)O)CC[C@@]4(C)[C@]3(C)CC[C@H]2C1(C)C` gave an IC50 above 50 µM.

`CC(C)[C@H](NC(=O)CCCCCNC(=O)[C@]12CCC(C)(C)C[C@H]1C1=CC[C@@H]3[C@@]4(C)CC[C@H](OC(=O)c5ccccc5)C(C)(C)[C@@H]4CC[C@@]3(C)[C@]1(C)CC2)C(=O)O` displayed a 50% inhibitory concentration (IC50) above 50 µM.

The molecule `CC(C)(CC(=O)O)CC(=O)O[C@H]1CC[C@]2(C)[C@H]3CC=C4[C@@H]5CC(C)(C)CC[C@]5(C(=O)NCCCC(=O)O)CC[C@@]4(C)[C@]3(C)CC[C@H]2C1(C)C` gave an IC50 of 33.3 µM.

In the case of `CCC(=O)O[C@H]1CC[C@]2(C)[C@H]3CC=C4[C@@H]5CC(C)(C)CC[C@]5(C(=O)NCCCCCCCCCCC(=O)N[C@H](C(=O)O)C(C)C)CC[C@@]4(C)[C@]3(C)CC[C@H]2C1(C)C`, the IC50 was above 50 µM.

`CCCC(=O)O[C@H]1CC[C@]2(C)[C@H]3CC=C4[C@@H]5CC(C)(C)CC[C@]5(C(=O)NCCCCCCCCCCC(=O)N[C@@H](C)C(=O)O)CC[C@@]4(C)[C@]3(C)CC[C@H]2C1(C)C` showed an IC50 above 50 µM.

In the case of `CC1(C)CC[C@]2(C(=O)NCCCCCCCCCCC(=O)NCC(=O)O)CC[C@]3(C)C(=CC[C@@H]4[C@@]5(C)CC[C@H](OC(=O)c6ccccc6)C(C)(C)[C@@H]5CC[C@]43C)[C@@H]2C1`, the IC50 was above 50 µM.

In general, IC50 refers to the concentration that inhibits the measured activity by half. High values mean weaker potency in that assay, low ones greater potency in that assay.
